Experimental findings from PMC6858440, “Computational redesign of the Escherichia coli ribose-binding protein ligand binding pocket for 1,3-cyclohexanediol and cyclohexanol” (Scientific Reports, 2019) are described below.

The target in this assay is RbsB ribose-binding protein (Escherichia coli, UniProt P02925). The assay is described as follows: ITC with purified protein; also ~[…] °C Tm shift with […] ribose.
RbsB ribose-binding protein, sequence (P02925 26-296): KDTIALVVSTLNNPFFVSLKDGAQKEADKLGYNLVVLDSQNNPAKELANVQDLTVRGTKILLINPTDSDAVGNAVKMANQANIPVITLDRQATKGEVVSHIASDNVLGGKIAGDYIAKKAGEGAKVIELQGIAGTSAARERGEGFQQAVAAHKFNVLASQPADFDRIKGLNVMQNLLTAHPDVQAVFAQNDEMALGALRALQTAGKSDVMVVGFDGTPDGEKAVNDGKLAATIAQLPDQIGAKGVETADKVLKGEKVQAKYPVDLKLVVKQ

Broadly, the Kd is the concentration at which binding is half-saturated. For `O=C[C@H](O)[C@H](O)[C@H](O)CO` [ribose], the Kd stood at 530 nM.
